Laboratory results published in ChEMBL document CHEMBL4837241, “Identification of Betulinic Acid Derivatives as Potent TGR5 Agonists with Antidiabetic Effects via Humanized TGR5H88Y Mutant Mice” (J Med Chem, 2021).
≈ marks a conversion by molar mass, not a printed value. Calls of active or inactive are those of the source. The rule behind the calls is not given here.

What was measured:
[1] = test system: HEK293; experiment: Agonist activity at N-terminal HA-tagged dog TGR5 expressed in HEK293 cells assessed as […] in intracellular cAMP levels incubated for 30 mins by Lance Ultra cAMP assay relative to control; type: cell-based; details: Canis lupus familiaris, filed as agonist
[2] = test system: HEK293; experiment: Ratio of agonist activity at N-terminal HA-tagged mouse TGR5 expressed in HEK293 cells to agonist activity at N-terminal HA-tagged mouse TGR5 H88Y mutant expressed in HEK293 cells; type: cell-based
[3] = biological target: T1, G-protein coupled bile acid receptor 1 (Homo sapiens) (UniProt Q8TDU6); experiment: Agonist activity at N-terminal HA-tagged human TGR5 expressed in HEK293 cells assessed as […] in intracellular cAMP levels incubated for 30 mins by Lance Ultra cAMP assay relative to control; type: functional, cell-based; details: filed as agonist
T1 sequence (whole entry): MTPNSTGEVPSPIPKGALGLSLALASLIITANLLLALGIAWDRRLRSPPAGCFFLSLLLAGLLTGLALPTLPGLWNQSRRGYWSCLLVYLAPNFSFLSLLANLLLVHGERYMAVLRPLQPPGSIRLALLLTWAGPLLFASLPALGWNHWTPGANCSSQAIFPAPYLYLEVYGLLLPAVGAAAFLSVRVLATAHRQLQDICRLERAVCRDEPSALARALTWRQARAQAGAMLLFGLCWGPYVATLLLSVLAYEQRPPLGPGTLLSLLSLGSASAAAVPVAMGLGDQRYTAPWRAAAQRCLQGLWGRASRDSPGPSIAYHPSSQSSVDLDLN

[4] = test system: Mus musculus; experiment: Anti-glycemic activity in fasted C57/BL6 mouse harboring TGR5 H88Y mutant assessed as reduction in plasma glucose at 100 mg/kg administered 30 mins prior to glucose challenge by OGTT; type: functional, organism-based
[5] = test system: Mus musculus; experiment: Anti-glycemic activity in fasted C57BL/6n mouse harboring wild type TGR5 assessed as reduction in plasma glucose at 100 mg/kg administered 30 mins prior to glucose challenge by OGTT; type: functional, organism-based
[6] = test system: Mus musculus; experiment: Anti-glycemic activity in fasted C57BL/6n mouse harboring TGR5 H88Y mutant assessed as increase in serum GLP1 at 100 mg/kg administered 30 mins prior to glucose challenge and measured after 15 mins by ELISA method; type: functional, organism-based
[7] = test system: Mus musculus; experiment: Anti-glycemic activity in fasted C57BL/6n mouse harboring TGR5 H88Y mutant assessed as increase in serum insulin at 100 mg/kg administered 30 mins prior to glucose challenge and measured after 15 mins by ELISA method; type: functional, organism-based
[8] = test system: Mus musculus; experiment: Anti-glycemic activity in fasted C57BL/6n mouse assessed as increase in serum GLP1 at 100 mg/kg administered 30 mins prior to glucose challenge and measured after 15 mins by ELISA method; type: functional, organism-based
[9] = test system: Mus musculus; experiment: Anti-glycemic activity in fasted C57BL/6n mouse assessed as increase in serum insulin at 100 mg/kg administered 30 mins prior to glucose challenge and measured after 15 mins by ELISA method; type: functional, organism-based
[10] = test system: Pancreatic islet; experiment: Stimulation of glucose-induced insulin secretion in pancreatic islets of C57BL/6n mouse harboring TGR5 H88Y mutant at 1 uM incubated for 2 hrs by HTRF method; type: functional, tissue-based
[11] = test system: Pancreatic islet; experiment: Stimulation of glucose-induced insulin secretion in pancreatic islets of C57BL/6n mouse harboring wild type TGR5 at 1 uM incubated for 2 hrs by HTRF method; type: functional, tissue-based
[12] = biological target: T2, Bile acid receptor (Homo sapiens) (UniProt Q96RI1); experiment: Agonist activity at human FXR (247 to 467 residues) expressed in HEK293 cells at 100 uM incubated for 8 hrs by luciferase assay; type: cell-based
T2 sequence (whole entry): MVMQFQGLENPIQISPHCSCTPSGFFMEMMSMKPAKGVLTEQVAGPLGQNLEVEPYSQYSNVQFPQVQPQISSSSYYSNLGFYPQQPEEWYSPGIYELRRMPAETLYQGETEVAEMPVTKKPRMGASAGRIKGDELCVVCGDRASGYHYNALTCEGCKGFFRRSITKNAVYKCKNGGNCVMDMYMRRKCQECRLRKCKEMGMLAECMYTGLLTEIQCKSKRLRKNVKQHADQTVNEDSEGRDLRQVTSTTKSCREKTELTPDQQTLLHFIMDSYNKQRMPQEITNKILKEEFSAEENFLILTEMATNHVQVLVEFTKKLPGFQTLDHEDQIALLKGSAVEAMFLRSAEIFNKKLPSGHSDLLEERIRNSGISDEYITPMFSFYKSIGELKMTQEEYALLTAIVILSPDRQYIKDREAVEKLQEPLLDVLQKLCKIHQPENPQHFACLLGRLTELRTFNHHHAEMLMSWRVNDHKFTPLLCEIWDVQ

[13] = Aqueous solubility of compound; type: physicochemical; details: buffer
[14] = biological target: T3, G-protein coupled bile acid receptor 1 (Homo sapiens, UniProt Q8TDU6); experiment: Agonist activity at N-terminal HA-tagged human TGR5 expressed in HEK293 cells assessed as […] in intracellular cAMP levels incubated for 30 mins by Lance Ultra cAMP assay; type: functional, cell-based
T3 sequence (Q8TDU6 whole entry): T1 sequence (whole entry)

[15] = biological target: T4, G-protein coupled bile acid receptor 1 (Mus musculus, UniProt Q80SS6); experiment: Agonist activity at N-terminal HA-tagged mouse TGR5 expressed in HEK293 cells assessed as […] in intracellular cAMP levels incubated for 30 mins by Lance Ultra cAMP assay; type: functional, cell-based
T4 sequence (Q80SS6 whole entry): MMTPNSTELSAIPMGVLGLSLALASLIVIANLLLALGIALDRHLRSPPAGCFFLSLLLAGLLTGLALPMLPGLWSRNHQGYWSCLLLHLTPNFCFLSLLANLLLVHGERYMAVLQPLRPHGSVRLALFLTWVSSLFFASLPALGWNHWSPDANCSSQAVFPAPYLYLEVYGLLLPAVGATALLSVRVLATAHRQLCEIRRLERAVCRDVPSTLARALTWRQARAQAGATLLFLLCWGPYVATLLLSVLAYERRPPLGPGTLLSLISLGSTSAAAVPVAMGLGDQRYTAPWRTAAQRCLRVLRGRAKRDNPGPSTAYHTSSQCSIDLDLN

[16] = biological target: T5, G-protein coupled bile acid receptor 1 (Mus musculus) (UniProt Q80SS6); experiment: Agonist activity at N-terminal HA-tagged mouse TGR5 expressed in HEK293 cells assessed as […] in intracellular cAMP levels incubated for 30 mins by Lance Ultra cAMP assay relative to control; type: functional, cell-based
T5 sequence (whole entry): T4 sequence (Q80SS6 whole entry)

[17] = Apparent permeability in human Caco2 cells across apical side to basolateral side assessed as drug recovery at 10 uM incubated for 95 mins by liquid chromatography-tandem mass spectrometry; type: ADME, cell-based; details: Caco-2, read-out: Drug recovery
[18] = Apparent permeability in human Caco2 cells across basolateral side to apical side assessed as drug recovery at 10 uM incubated for 95 mins by liquid chromatography-tandem mass spectrometry; type: ADME, cell-based; details: Caco-2, read-out: Drug recovery
[19] = Apparent permeability in human Caco-2 cells across apical side to basolateral side at 10 uM incubated for 95 mins by liquid chromatography-tandem mass spectrometry; type: ADME, cell-based
[20] = Apparent permeability in human Caco-2 cells across basolateral side to apical side at 10 uM incubated for 95 mins by liquid chromatography-tandem mass spectrometry; type: ADME, cell-based
[21] = Efflux ratio in human Caco-2 cells at 10 uM by LC/MS/MS analysis; type: ADME, cell-based

SMILES	Activity [1]	Ratio [2]	Emax [3] [%]	Activity [4]	Activity [12]	solubility [13] [µM]	EC50 [14] [µM]	recovery at 1.583 h, 10 µM [17] [%]	recovery at 1.583 h, 10 µM [18] [%]	also measured
COc1ccc2cc(CNCCc3ccc(Br)cc3)c(-c3ccsc3)nc2c1	Active	5.6								
C[C@H](O)[C@@H]1CC[C@]2(C(=O)O)CC[C@]3(C)[C@H](CC[C@@H]4[C@@]5(C)CC[C@@H](OC(=O)NC6CC6)C(C)(C)[C@@H]5CC[C@]43C)[C@@H]12 [listing 1 of 2 here]			99	Active	inactive					Activity [5]: inactive; Activity [6]: Active; Activity [7]: Active; Activity [8]: inactive; Activity [9]: inactive; Activity [10]: Active; Activity [11]: Active
O=C(c1cccnc1Oc1cc(Cl)ccc1Cl)N1CCCc2ccccc21	Active	4.9								
CCCC(=O)O[C@@H]1CC[C@]2(C)[C@H]3CC[C@@H]4[C@H]5[C@H](C(C)C)CC[C@]5(C(=O)O)CC[C@@]4(C)[C@]3(C)CC[C@H]2C1(C)C			94	inactive	inactive	0.13 (≈ 0.0687 µg/mL)	0.0831	0	0	EC50 [15]: 2.61 µM; Emax [16]: 22%
C[C@H](O)[C@@H]1CC[C@]2(C(=O)[O-])CC[C@]3(C)[C@H](CC[C@@H]4[C@@]5(C)CC[C@@H](OC(=O)NC6CC6)C(C)(C)[C@@H]5CC[C@]43C)[C@@H]12.[Na+]						76300		84.6	85.1	Papp A→B at 1.583 h, 10 µM [19]: 75.6 nm/s; Papp B→A at 1.583 h, 10 µM [20]: 24.9 nm/s; efflux ratio at 10 µM [21]: 0.329
C[C@H](O)[C@@H]1CC[C@]2(C(=O)O)CC[C@]3(C)[C@H](CC[C@@H]4[C@@]5(C)CC[C@@H](OC(=O)NC6CC6)C(C)(C)[C@@H]5CC[C@]43C)[C@@H]12 [listing 2 of 2 here]						12.2 (≈ 6.63 µg/mL)	0.00507			
